Tested on: lymphocytes
Assay: Two-colour microarray gene expression analysis of lymphocytes treated with rapamycin vs untreated
Type: cell-based, human
Conditions: rapamycin 100 ng/ml, 24 h
Method: Two-colour microarray based gene expression analysis (Agilent Technologies) was used to identify genes that were differentially expressed in lymphocytes treated with rapamycin compared to lymphocytes that were left untreated. The microarray used was the Agilent Whole Human Genome Microarray: 4×44K.
Two parallel lymphocyte cultures were set up in RPMI medium supplemented with 10% FCS at a concentration of 1×10^6 cells per 1 ml of culture media. Phytohaemaglutinin (PHA) was added to the cultures at a final concentration of 22 μg/ml to activate the lymphocytes. Cultures were incubated for 48 hours at 37° C. in a humidified atmosphere containing 5% CO2. After 48 hours culture, one culture was treated with 100 ng/ml rapamycin, while the other untreated culture was kept as a control. After a further 24 hours, the cells of each lymphocyte culture were harvested by centrifugation.
RNA was extracted from the lymphocyte pellets using TRI Reagent® in accordance with standard protocol. To ensure that there was no DNA contamination, the RNA was treated with DNase (Qiagen) according to the manufacturer's standard protocol. RNA quality was determined by RNA nano-chip analysis using an Agilent 2100 Bioanalyser, also according to standard protocol. The RNA quality of the samples ranged from 8-10 RNA Integrity Number (RIN), indicative of good quality RNA suitable for gene expression microarray.
200 ng of RNA was converted to cDNA with the low-input quick amplification labelling kit (Agilent, 5190-2305). Spike Mix A and B were prepared separately. For each, the spike mix was thawed and vortexed, incubated at 37° C. for 5 minutes, and diluted in the provided dilution buffer (see Table 3 for dilution protocol). 2 μl of diluted spike mix A and spike mix B were added to 200 ng of RNA in a 1.5 μl volume from the rapamycin-treated and untreated lymphocytes respectively. […] The samples were incubated at 65° C. for 10 minutes, and placed on ice for 5 minutes. 4.7 μl of the cDNA master mix was added per sample, and samples incubated at 40° C. for 2 hours; 70° C. for 15 minutes; and placed on ice for 5 minutes.
The low-input quick amplification labelling kit (Agilent, 5190-2305) was used to convert the cDNA to labelled cRNA. Spike Mix A samples were added to transcription master mix prepared with Cyanine 3-CTP (green), whereas Spike Mix B samples were added to transcription master mix prepared with Cyanine 5-CTP (red). 6 μl of the transcription master mix was added per 10 μl cDNA sample, and incubated at 40° C. for 2 hours.
The cRNA was purified by standard RNeasy mini column protocol (Qiagen). The cRNA was quantified with a nanodrop spectrophotometer on the Microarray setting. The yield and specific activity of the cRNA samples were calculated as follows: […]
825 ng of labelled cRNA was added to various fragmentation components as described in Table 7, incubated at 60° C. for 30 minutes, and cooled on ice for 1 minute. 55 μl of GEx Hybridisation buffer HI-RPM was subsequently added to stop fragmentation. The samples were mixed, centrifuged at 13,000 rotations per minute (RPM) for 1 minute, and placed on ice in preparation for microarray assembly. The microarray of choice was the 4×44K Agilent Whole Human Genome Microarray. A clean gasket slide was placed into the chamber base, 100 μl of sample dispensed per well, and array placed onto the gasket slide to facilitate hybridisation. The gasket and microarray slides were clamped together and incubated at 65° C. for 17 hours.
Following hybridisation, the microarrays were washed in various wash solutions as described in Table 8. To summarise, the microarrays were removed from the hybridisation assembly and carefully separated from the gasket slide whilst fully submersed in wash buffer 1. Slides were washed for 1 minute, transferred to wash buffer 2 at 37° C. for 1 minute, and washed in acetonitrile for 10 seconds. The final wash was in stabilisation and drying solution for 30 seconds. […]

CO[C@H]1C[C@@H]2CC[C@@H](C)[C@@](O)(O2)C(=O)C(=O)N2CCCC[C@H]2C(=O)O[C@H]([C@H](C)C[C@@H]2CC[C@@H](O)[C@H](OC)C2)CC(=O)[C@H](C)/C=C(\C)[C@@H](O)[C@@H](OC)C(=O)[C@H](C)C[C@H](C)/C=C/C=C/C=C/1C [rapamycin] gave a Fold change (gene ACPP (up-regulated)) of 1.769, a Fold change (gene ACSL6 (down-regulated)) of −1.795 and a Fold change (gene ACSS1 (up-regulated)) of 1.212. It also gave a Fold change (gene ADAMTS15 (up-regulated)) of 1.095, a Fold change (gene ADAMTS16 (down-regulated)) of −1.497 and a Fold change (gene ADH6 (up-regulated)) of 1.177. It also gave a Fold change (gene ADSSL1 (up-regulated)) of 0.8544, a Fold change (gene ALDH1A3 (up-regulated)) of 1.792 and a Fold change (gene AMY1C, symbol AMY1A (includes others) (up-regulated)) of 0.8998. The Fold change (gene AP1S1 (down-regulated)) was −1.488, the Fold change (gene B3GALT4 (up-regulated)) was 1.175 and the Fold change (gene B4GALT6 (up-regulated)) was 1.07. For the same compound, the Fold change (gene BMP7 (up-regulated)) was 1.123, the Fold change (gene CA6 (up-regulated)) was 1.029 and the Fold change (gene CCL1 (up-regulated)) was 1.135. For the same compound, the Fold change (gene CCL2 (down-regulated)) was −2.661, the Fold change (gene CCL8 (down-regulated)) was −2.62 and the Fold change (gene CCL26 (up-regulated)) was 1.662. For the same compound, the Fold change (gene COL8A2 (down-regulated)) was −1.411, the Fold change (gene CROT (down-regulated)) was −2.4978 and the Fold change (gene CTSF (up-regulated)) was 1.61. For the same compound, the Fold change (gene CYP3A5 (up-regulated)) was 1.214, the Fold change (gene CYP4F3 (up-regulated)) was 1.395 and the Fold change (gene CYP4V2 (up-regulated)) was 0.8253. For the same compound, the Fold change (gene CYP4X1 (up-regulated)) was 1.062, the Fold change (gene DCLK1 (up-regulated)) was 1.437 and the Fold change (gene DHRS3 (up-regulated)) was 0.8206. It also gave a Fold change (gene DTD1 (up-regulated)) of 1.511, a Fold change (gene DUSP13 (up-regulated)) of 1.045 and a Fold change (gene DYNC2LI1 (down-regulated)) of −1.902. For the same compound, the Fold change (gene DZIP3 (up-regulated)) was 0.8533, the Fold change (gene EGLN3 (down-regulated)) was −1.959 and the Fold change (gene F9 (up-regulated)) was 1.605. It also gave a Fold change (gene FGF2 (down-regulated)) of −2.241, a Fold change (gene FGF18 (down-regulated)) of −1.255 and a Fold change (gene FJX1 (down-regulated)) of −2.328. The Fold change (gene FUT9 (down-regulated)) was −1.648, the Fold change (gene GBP3 (up-regulated)) was 0.8462 and the Fold change (gene GDA (up-regulated)) was 1.596. It also gave a Fold change (gene GNAL (up-regulated)) of 0.996, a Fold change (gene GPAM (down-regulated)) of −1.231 and a Fold change (gene GPX6 (up-regulated)) of 1.702. For the same compound, the Fold change (gene HCK (down-regulated)) was −1.403, the Fold change (gene HSD17B13 (up-regulated)) was 1.51 and the Fold change (gene IGBP1 (up-regulated)) was 0.8038. For the same compound, the Fold change (gene IGF2 (up-regulated)) was 1.185, the Fold change (gene IL1B (up-regulated)) was 1.136 and the Fold change (gene IL1RN (up-regulated)) was 1.004. For the same compound, the Fold change (gene IL2 (down-regulated)) was −1.407, the Fold change (gene IL3 (down-regulated)) was −2.123 and the Fold change (gene IL6 (down-regulated)) was −1.3333. It also gave a Fold change (gene IL10 (down-regulated)) of −2.727, a Fold change (gene INPP5E (down-regulated)) of −1.4981 and a Fold change (gene INPP5K (up-regulated)) of 0.7753. It also gave a Fold change (gene JAK1 (up-regulated)) of 0.8726, a Fold change (gene LEFTY1 (up-regulated)) of 1.067 and a Fold change (gene LEP (up-regulated)) of 1.281. For the same compound, the Fold change (gene LIPF (up-regulated)) was 1.349, the Fold change (gene LOXL3 (down-regulated)) was −1.3654 and the Fold change (gene MMP9 (up-regulated)) was 1.152. It also gave a Fold change (gene MOXD1 (down-regulated)) of −2.421, a Fold change (gene MPP4 (up-regulated)) of 0.8611 and a Fold change (gene MTHFR (up-regulated)) of 0.8153. It also gave a Fold change (gene OGN (up-regulated)) of 1.567, a Fold change (gene PAOX (up-regulated)) of 0.8572 and a Fold change (gene PDE1A (up-regulated)) of 1.31. The Fold change (gene PDE4C (up-regulated)) was 1.017, the Fold change (gene PDK4 (up-regulated)) was 0.8187 and the Fold change (gene PIM1 (up-regulated)) was 1.101. For the same compound, the Fold change (gene PITPNM2 (up-regulated)) was 0.8702, the Fold change (gene PLAT (up-regulated)) was 0.8897 and the Fold change (gene PLB1 (up-regulated)) was 1.566. The Fold change (gene PLD1 (up-regulated)) was 0.9334, the Fold change (gene PLGLB1, symbol PLGLB1/PLGLB2 (up-regulated)) was 0.9441 and the Fold change (gene PON3 (up-regulated)) was 1.013. For the same compound, the Fold change (gene PRKG1 (down-regulated)) was −1.116, the Fold change (gene PRODH2 (up-regulated)) was 1.716 and the Fold change (gene PRSS23 (up-regulated)) was 1.012. It also gave a Fold change (gene PTGS2 (down-regulated)) of −1.2871, a Fold change (gene PYCR1 (down-regulated)) of −1.294 and a Fold change (gene RAB37 (up-regulated)) of 0.9052. For the same compound, the Fold change (gene RAB39 (up-regulated)) was 0.8095, the Fold change (gene RND3 (up-regulated)) was 0.9124 and the Fold change (gene RPS6KB1 (up-regulated)) was 1.481. It also gave a Fold change (gene RRAD (down-regulated)) of −1.632, a Fold change (gene SGTA (down-regulated)) of −1.403 and a Fold change (gene SPP1 (up-regulated)) of 1.471. It also gave a Fold change (gene SPRED2 (up-regulated)) of 0.825, a Fold change (gene ST3GAL6 (up-regulated)) of 1.175 and a Fold change (gene ST6GALNAC2 (down-regulated)) of −1.242. It also gave a Fold change (gene STK31 (up-regulated)) of 1.092, a Fold change (gene STS (up-regulated)) of 0.8677 and a Fold change (gene TAC1 (down-regulated)) of −1.262. For the same compound, the Fold change (gene TDH (up-regulated)) was 1.414, the Fold change (gene THBS1 (down-regulated)) was −1.359 and the Fold change (gene TRIB1 (up-regulated)) was 1.07. The Fold change (gene UBE2M (down-regulated)) was −1.504, the Fold change (gene ULK2 (up-regulated)) was 1.069 and the Fold change (gene WWP2 (up-regulated)) was 0.9105. The Fold change (gene ZADH2 (up-regulated)) was 1.005.

Source: patent US20140295425A1, “Diagnosis for Alzheimer's Disease” (The University of Birmingham, priority 2011, published 2014)
